Laboratory results: patent US9738932B2, “Biomarkers for cardiovascular side-effects induced by cox-2 inhibitory compounds” (FIRALIS SAS, priority 2005, dated 2017)

Test system: mRNA expression in cardiovascular tissues
Test: Affymetrix GeneChip mRNA expression profiling of monkey tissues (iliac vein, pulmonary vein, aorta, carotid artery, heart) after two-week oral-gavage treatment
Details: iliac vein
[1] = group average (Vioxx without A60055)
[2] = group avg, Vioxx without A60055

Cc1ccc(Nc2c(F)cccc2Cl)c(CC(=O)O)c1 [COX189, Lumiracoxib]
2.6 fold: CXCL11 (210163_at) avg fold change vs control [2]
1.6 fold: CCL2 (216598_s_at) avg fold change vs control [2]
1.7 fold: CCL8 (214038_at) avg fold change vs control [2] | CD3D (213539_at) avg fold change vs control [2] | CXCL9 (203915_at) avg fold change vs control [2] | ECGF1 (204858_s_at) avg fold change vs control [2]
0.8 fold: ACE (209749_s_at) mRNA expression, Avg fold changes vs control [1] | CCR1 (205098_at) mRNA expression, Avg fold changes vs control [1] | EMP3 (203729_at) mRNA expression, Avg fold changes vs control [1] | FCGR2A (203561_at) mRNA expression, Avg fold changes vs control [1] | FKBP11 (219118_at) mRNA expression, Avg fold changes vs control [1] | CXCL12 (209687_at) avg fold change vs control [2] | GZMB (210164_at) avg fold change vs control [2]
1.4 fold: BCL6 (215990_s_at) mRNA expression, Avg fold changes vs control [1] | HLA-F (221978_at) mRNA expression, Avg fold changes vs control [1] | CCL19 (210072_at) avg fold change vs control [2] | CCNB2 (202705_at) avg fold change vs control [2] | CXCL10 (204533_at) avg fold change vs control [2]
0.5 fold: AIF1 (213095_x_at) avg fold change vs control [2]
1.8 fold: F2RL1 (206429_at) avg fold change vs control [2]
1.5 fold: HLA-C (211799_x_at) mRNA expression, Avg fold changes vs control [1] | BTN3A3 (204821_at) avg fold change vs control [2] | G1P2 (205483_s_at) avg fold change vs control [2]
0.7 fold: FKBP11 (219117_s_at) mRNA expression, Avg fold changes vs control [1] | AIF1 (209901_x_at) avg fold change vs control [2] | CD14 (201743_at) avg fold change vs control [2]
1.1 fold: B2M (216231_s_at) mRNA expression, Avg fold changes vs control [1] | CD2 (205831_at) mRNA expression, Avg fold changes vs control [1] | IL13RA1 (210904_s_at) mRNA expression, Avg fold changes vs control [1] | PIK3CD (203879_at) mRNA expression, Avg fold changes vs control [1] | PRKCBP1 (209048_s_at) mRNA expression, Avg fold changes vs control [1] | TMSB10 (217733_s_at) mRNA expression, Avg fold changes vs control [1] | TNFRSF21 (218856_at) mRNA expression, Avg fold changes vs control [1] | BTN3A3 (204820_s_at) avg fold change vs control [2] | C2 (203052_at) avg fold change vs control [2] | CASP1 (209970_x_at) avg fold change vs control [2] | CMAH (210571_s_at) avg fold change vs control [2] | CTSC (201487_at) avg fold change vs control [2] | CTSS (202902_s_at) avg fold change vs control [2] | F13A1 (203305_at) avg fold change vs control [2] | HCK (208018_s_at) avg fold change vs control [2]
1.0 fold: CD48 (204118_at) mRNA expression, Avg fold changes vs control [1] | CD53 (203416_at) mRNA expression, Avg fold changes vs control [1] | CDC2 (210559_s_at) mRNA expression, Avg fold changes vs control [1] | FCER1G (204232_at) mRNA expression, Avg fold changes vs control [1] | FCGRT (218831_s_at) mRNA expression, Avg fold changes vs control [1] | HCLS1 (202957_at) mRNA expression, Avg fold changes vs control [1] | HEM1 (209734_at) mRNA expression, Avg fold changes vs control [1] | HLA-E (200904_at) mRNA expression, Avg fold changes vs control [1] | ICAM1 (202637_s_at) mRNA expression, Avg fold changes vs control [1] | PTPN7 (204852_s_at) mRNA expression, Avg fold changes vs control [1] | STAT3 (208992_s_at) mRNA expression, Avg fold changes vs control [1] | TCIRG1 (204158_s_at) mRNA expression, Avg fold changes vs control [1] | 209813_x_at avg fold change vs control [2] | B2M (201891_s_at) avg fold change vs control [2] | BCL3 (204908_s_at) avg fold change vs control [2] | BTN3A3 (38241_at) avg fold change vs control [2] | C1QA (218232_at) avg fold change vs control [2] | C1QB (202953_at) avg fold change vs control [2] | C1R (212067_s_at) avg fold change vs control [2] | C1S (208747_s_at) avg fold change vs control [2] | CD74 (209619_at) avg fold change vs control [2] | CLU (208791_at) avg fold change vs control [2] | CYBB (203923_s_at) avg fold change vs control [2] | CYP11B1 (214630_at) avg fold change vs control [2] | ECM1 (209365_s_at) avg fold change vs control [2] | FCGR1A (214511_x_at) avg fold change vs control [2] | FCGR3A (204006_s_at) avg fold change vs control [2]
2.3 fold: CCL18 (209924_at) avg fold change vs control [2] | CXCL11 (211122_s_at) avg fold change vs control [2]
1.2 fold: GP6 (220336_s_at) mRNA expression, Avg fold changes vs control [1] | HLA-A (210514_x_at) mRNA expression, Avg fold changes vs control [1] | HLA-A (213932_x_at) mRNA expression, Avg fold changes vs control [1] | TRB@ (213193_x_at) mRNA expression, Avg fold changes vs control [1] | CASP1 (211367_s_at) avg fold change vs control [2] | CD8A (205758_at) avg fold change vs control [2] | CTSK (202450_s_at) avg fold change vs control [2] | CX3CR1 (205898_at) avg fold change vs control [2] | CYBA (203028_s_at) avg fold change vs control [2]
1.3 fold: BTN2A2 (205298_s_at) mRNA expression, Avg fold changes vs control [1] | STAT1 (200887_s_at) mRNA expression, Avg fold changes vs control [1] | STAT1 (AFFX-HUMISGF3A/M97935_3_at) mRNA expression, Avg fold changes vs control [1] | TRB@ (210915_x_at) mRNA expression, Avg fold changes vs control [1] | CYP1B1 (202436_s_at) avg fold change vs control [2] | CYP3A5 (214234_s_at) avg fold change vs control [2] | HFE (210864_x_at) avg fold change vs control [2]
2.1 fold: BTN3A1 (207485_x_at) avg fold change vs control [2]
0.9 fold: CYBB (203922_s_at) mRNA expression, Avg fold changes vs control [1] | PRKCBP1 (209049_s_at) mRNA expression, Avg fold changes vs control [1] | SIGIRR (52940_at) mRNA expression, Avg fold changes vs control [1] | THY1 (213869_x_at) mRNA expression, Avg fold changes vs control [1] | TMPO (209753_s_at) mRNA expression, Avg fold changes vs control [1] | C4A (208451_s_at) avg fold change vs control [2] | CCL3 (205114_s_at) avg fold change vs control [2] | CCL5 (1405_i_at) avg fold change vs control [2] | DUSP6 (208893_s_at) avg fold change vs control [2] | HCA127 (220040_x_at) avg fold change vs control [2]
